Test results published in ChEMBL document CHEMBL1136143, “Synthesis and activity of novel benzoxazole derivatives of mannopeptimycin glycopeptide antibiotics” (2003).
≈ marks a conversion by molar mass, not a printed value.

How the values were obtained:
Type in all cases: functional
[1] = test system: Staphylococcus aureus; assay: In vitro minimum inhibitory concentration against Staphylococcus aureus (10strains, including MRSA)
[2] = test system: Streptococcus; assay: In vitro minimum inhibitory concentration against Streptococcus Species (5 strains, including PRSP)
[3] = test system: Enterococcus sp.; assay: In vitro minimum inhibitory concentration against Enterococcus species (11 strains, including VRE)

Compound	MIC [1]	MIC [2]	MIC [3]
C[C@@H](c1ccccc1)[C@@H]1NC(=O)CNC(=O)[C@H](CO)NC(=O)[C@@H]([C@@H](O)[C@@H]2CN=C(N)N2)NC(=O)[C@H]([C@H](O)[C@@H]2CN=C(N)N2)NC(=O)[C@@H](Cc2ccc3nc(-c4ccccc4)oc3c2)NC1=O	32 µg/mL (≈ 35.2 µM)	32 µg/mL (≈ 35.2 µM)	32 µg/mL (≈ 35.2 µM)
COc1cc(-c2nc3ccc(C[C@H]4NC(=O)[C@H]([C@@H](C)c5ccccc5)NC(=O)CNC(=O)[C@H](CO)NC(=O)[C@@H]([C@@H](O)[C@@H]5CN=C(N)N5[C@H]5O[C@H](CO)[C@@H](O)[C@H](O)[C@@H]5O)NC(=O)[C@H]([C@H](O)[C@@H]5CN=C(N)N5)NC4=O)cc3o2)cc(OC)c1OC	8 µg/mL (≈ 6.88 µM)	8 µg/mL (≈ 6.88 µM)	8 µg/mL (≈ 6.88 µM)
C[C@@H](c1ccccc1)[C@@H]1NC(=O)CNC(=O)[C@H](CO)NC(=O)[C@@H]([C@@H](O)[C@@H]2CN=C(N)N2[C@H]2O[C@H](CO)[C@@H](O)[C@H](O)[C@@H]2O)NC(=O)[C@H]([C@H](O)[C@@H]2CN=C(N)N2)NC(=O)[C@@H](Cc2ccc3nc(-c4ccc(C(C)(C)C)cc4)oc3c2)NC1=O	2 µg/mL (≈ 1.77 µM)	8 µg/mL (≈ 7.09 µM)	2 µg/mL (≈ 1.77 µM)
C[C@@H](c1ccccc1)[C@@H]1NC(=O)CNC(=O)[C@H](CO)NC(=O)[C@@H]([C@@H](O)[C@@H]2CN=C(N)N2[C@H]2O[C@H](CO)[C@@H](O)[C@H](O)[C@@H]2O)NC(=O)[C@H]([C@H](O)[C@@H]2CN=C(N)N2)NC(=O)[C@@H](Cc2ccc3nc(-c4ccco4)oc3c2)NC1=O	6 µg/mL (≈ 5.65 µM)	32 µg/mL (≈ 30.1 µM)	32 µg/mL (≈ 30.1 µM)
C[C@@H](c1ccccc1)[C@@H]1NC(=O)CNC(=O)[C@H](CO)NC(=O)[C@@H]([C@@H](O)[C@@H]2CN=C(N)N2[C@H]2O[C@H](CO)[C@@H](O)[C@H](O)[C@@H]2O)NC(=O)[C@H]([C@H](O)[C@@H]2CN=C(N)N2)NC(=O)[C@@H](Cc2ccc3nc(SCc4ccc(-c5ccccc5)cc4)oc3c2)NC1=O	8 µg/mL (≈ 6.7 µM)	2 µg/mL (≈ 1.67 µM)	2 µg/mL (≈ 1.67 µM)
C[C@@H](c1ccccc1)[C@@H]1NC(=O)CNC(=O)[C@H](CO)NC(=O)[C@@H]([C@@H](O)[C@@H]2CN=C(N)N2[C@H]2O[C@H](CO)[C@@H](O)[C@H](O)[C@@H]2O)NC(=O)[C@H]([C@H](O)[C@@H]2CN=C(N)N2)NC(=O)[C@@H](Cc2ccc3nc(-c4cccs4)oc3c2)NC1=O	8 µg/mL (≈ 7.42 µM)	16 µg/mL (≈ 14.8 µM)	16 µg/mL (≈ 14.8 µM)
C[C@@H](c1ccccc1)[C@@H]1NC(=O)CNC(=O)[C@H](CO)NC(=O)[C@@H]([C@@H](O)[C@@H]2CN=C(N)N2[C@H]2O[C@H](CO)[C@@H](O)[C@H](O)[C@@H]2O)NC(=O)[C@H]([C@H](O)[C@@H]2CN=C(N)N2)NC(=O)[C@@H](Cc2ccc3nc(NC4O[C@@H](OC(=O)c5ccccc5)[C@H](OC(=O)c5ccccc5)[C@@H](OC(=O)c5ccccc5)[C@@H]4COC(=O)c4ccccc4)oc3c2)NC1=O (stereo not given in full)	32 µg/mL (≈ 20.1 µM)	4 µg/mL (≈ 2.52 µM)	4 µg/mL (≈ 2.52 µM)
C[C@@H](c1ccccc1)[C@@H]1NC(=O)CNC(=O)[C@H](CO)NC(=O)[C@@H]([C@@H](O)[C@@H]2CN=C(N)N2[C@H]2O[C@H](CO)[C@@H](O)[C@H](O)[C@@H]2O)NC(=O)[C@H]([C@H](O)[C@@H]2CN=C(N)N2)NC(=O)[C@@H](Cc2ccc3nc(-c4cccc(C(C)(C)C)c4)oc3c2)NC1=O	16 µg/mL (≈ 14.2 µM)	8 µg/mL (≈ 7.09 µM)	8 µg/mL (≈ 7.09 µM)
C[C@@H](c1ccccc1)[C@@H]1NC(=O)CNC(=O)[C@H](CO)NC(=O)[C@@H]([C@@H](O)[C@@H]2CN=C(N)N2[C@H]2O[C@H](CO)[C@@H](O)[C@H](O)[C@@H]2O)NC(=O)[C@H]([C@H](O)[C@@H]2CN=C(N)N2)NC(=O)[C@@H](Cc2ccc3nc(SCc4ccccc4)oc3c2)NC1=O	4 µg/mL (≈ 3.58 µM)	4 µg/mL (≈ 3.58 µM)	4 µg/mL (≈ 3.58 µM)
C[C@@H](c1ccccc1)[C@@H]1NC(=O)CNC(=O)[C@H](CO)NC(=O)[C@@H]([C@@H](O)[C@@H]2CN=C(N)N2[C@H]2O[C@H](CO)[C@@H](O)[C@H](O)[C@@H]2O)NC(=O)[C@H]([C@H](O)[C@@H]2CN=C(N)N2)NC(=O)[C@@H](Cc2ccc3nc(-c4ccccc4OC4O[C@H](CO)[C@@H](O)[C@H](O)[C@H]4O)oc3c2)NC1=O (stereo not given in full)	> 128 µg/mL	128 µg/mL (≈ 102 µM)	128 µg/mL (≈ 102 µM)
C[C@@H](c1ccccc1)[C@@H]1NC(=O)CNC(=O)[C@H](CO)NC(=O)[C@@H]([C@@H](O)[C@@H]2CN=C(N)N2[C@H]2O[C@H](CO)[C@@H](O)[C@H](O)[C@@H]2O)NC(=O)[C@H]([C@H](O)[C@@H]2CN=C(N)N2)NC(=O)[C@@H](Cc2ccc3nc(-c4ccc(Br)cc4)oc3c2)NC1=O	8 µg/mL (≈ 6.95 µM)	4 µg/mL (≈ 3.48 µM)	8 µg/mL (≈ 6.95 µM)
C[C@@H](c1ccccc1)[C@@H]1NC(=O)CNC(=O)[C@H](CO)NC(=O)[C@@H]([C@@H](O)[C@@H]2CN=C(N)N2[C@H]2O[C@H](CO)[C@@H](O)[C@H](O)[C@@H]2O)NC(=O)[C@H]([C@H](O)[C@@H]2CN=C(N)N2)NC(=O)[C@@H](Cc2ccc3nc(SCC(=O)c4ccccc4)oc3c2)NC1=O	8 µg/mL (≈ 6.98 µM)	8 µg/mL (≈ 6.98 µM)	4 µg/mL (≈ 3.49 µM)
C[C@@H](c1ccccc1)[C@@H]1NC(=O)CNC(=O)[C@H](CO)NC(=O)[C@@H]([C@@H](O)[C@@H]2CN=C(N)N2[C@H]2O[C@H](CO)[C@@H](O)[C@H](O)[C@@H]2O)NC(=O)[C@H]([C@H](O)[C@@H]2CN=C(N)N2)NC(=O)[C@@H](Cc2ccc3nc(-c4ccc(-c5ccccc5)cc4)oc3c2)NC1=O	4 µg/mL (≈ 3.48 µM)	16 µg/mL (≈ 13.9 µM)	4 µg/mL (≈ 3.48 µM)
C[C@@H](c1ccccc1)[C@@H]1NC(=O)CNC(=O)[C@H](CO)NC(=O)[C@@H]([C@@H](O)[C@@H]2CN=C(N)N2[C@H]2O[C@H](CO)[C@@H](O)[C@H](O)[C@@H]2O)NC(=O)[C@H]([C@H](O)[C@@H]2CN=C(N)N2)NC(=O)[C@@H](Cc2ccc3nc(-c4ccc(OCc5ccccc5)cc4)oc3c2)NC1=O	8 µg/mL (≈ 6.79 µM)	8 µg/mL (≈ 6.79 µM)	4 µg/mL (≈ 3.39 µM)
CC(C)=Cc1nc2ccc(C[C@H]3NC(=O)[C@H]([C@@H](C)c4ccccc4)NC(=O)CNC(=O)[C@H](CO)NC(=O)[C@@H]([C@@H](O)[C@@H]4CN=C(N)N4[C@H]4O[C@H](CO)[C@@H](O)[C@H](O)[C@@H]4O)NC(=O)[C@H]([C@H](O)[C@@H]4CN=C(N)N4)NC3=O)cc2o1	32 µg/mL (≈ 30.5 µM)	32 µg/mL (≈ 30.5 µM)	16 µg/mL (≈ 15.2 µM)
C[C@@H](c1ccccc1)[C@@H]1NC(=O)CNC(=O)[C@H](CO)NC(=O)[C@@H]([C@@H](O)[C@@H]2CN=C(N)N2[C@H]2O[C@H](CO)[C@@H](O)[C@H](O)[C@@H]2O)NC(=O)[C@H]([C@H](O)[C@@H]2CN=C(N)N2)NC(=O)[C@@H](Cc2ccc3nc(-c4ccc(C(=O)O)cc4)oc3c2)NC1=O	> 128 µg/mL	128 µg/mL (≈ 115 µM)	128 µg/mL (≈ 115 µM)
CN[C@H](CC(C)C)C(=O)N[C@H]1C(=O)N[C@@H](CC(N)=O)C(=O)N[C@H]2C(=O)N[C@H]3C(=O)N[C@H](C(=O)N[C@H](C(=O)O)c4cc(O)cc(O)c4-c4cc3ccc4O)[C@H](O)c3ccc(c(Cl)c3)Oc3cc2cc(c3O[C@@H]2O[C@H](CO)[C@@H](O)[C@H](O)[C@H]2O[C@H]2C[C@](C)(N)[C@H](O)[C@H](C)O2)Oc2ccc(cc2Cl)[C@H]1O [VANCOMYCIN]	–	0.25 µg/mL (≈ 0.173 µM)	5 µg/mL (≈ 3.45 µM)
